Measured values reported in patent US6686443.
Where two headings read alike, the source gives them in different places.

Settings: disulfide bond

CC(=O)N[C@@H](CCCCN)C(=O)N1CCC[C@H]1C(=O)N[C@H](C(=O)N[C@H]1CSSC[C@@H](C(=O)N[C@@H](CCCNC(=N)N)C(=O)N[C@@H](CCCCN)C(=O)N[C@H](C(N)=O)[C@@H](C)O)NC(=O)[C@H](Cc2ccccc2)NC(=O)[C@@H]2CCCN2C1=O)[C@@H](C)O [Ac-Lys-Pro-Thr-Cys-Pro-Phe-Cys-Arg-Lys-Thr-NH2]
ring closure, conversion (from Ac-Lys-Pro-Thr-Cys-Pro-Phe-Cys-Arg-Lys-Thr-NH2, 14-membered ring, trans-[Pt(en)2Cl2]2+): 100%

CC[C@H](C)[C@H](NC(=O)[C@H](CC(=O)O)NC(=O)[C@@H](NC(C)=O)[C@@H](C)O)C(=O)N[C@H](C(=O)N[C@H]1CSSC[C@@H](C(=O)N[C@@H](Cc2c[nH]cn2)C(=O)N[C@@H](CCCCN)C(=O)N[C@@H](CC(C)C)C(=O)N[C@@H](Cc2c[nH]cn2)C(N)=O)NC(=O)[C@H](Cc2ccc(O)cc2)NC(=O)CNC1=O)[C@@H](C)O [Ac-Thr-Asp-Ile-Thr-Cys-Gly-Tyr-Cys-His-Lys-Leu-His-NH2]
ring closure, conversion (from Ac-Thr-Asp-Ile-Thr-Cys-Gly-Tyr-Cys-His-Lys-Leu-His-NH2, 14-membered ring, trans-[Pt(en)2Cl2]2+): 100%

CC(=O)N[C@H]1CSSC[C@@H](C(N)=O)NC(=O)[C@H](C)NC(=O)[C@H](C)NC(=O)[C@H](Cc2ccccc2)NC(=O)[C@@H]2CCCN2C1=O [Ac-Cys-Pro-Phe-Ala-Ala-Cys-NH2]
ring closure, conversion (from Ac-Cys-Pro-Phe-Ala-Ala-Cys-NH2, 20-membered ring, trans-[Pt(en)2Cl2]2+): 100%

CSCC[C@H](NC(=O)[C@H](CC(C)C)NC(=O)[C@@H]1CCCN1C(=O)[C@H](Cc1ccc(O)cc1)NC(=O)[C@H](Cc1ccccc1)NC(=O)[C@@H]1CSSC[C@H](NC(=O)[C@@H]2CCCN2C(=O)[C@@H](N)CCCNC(=N)N)C(=O)N2CCC[C@H]2C(=O)N[C@@H](CCC(N)=O)C(=O)N1)C(N)=O [H-Arg-Pro-Cys-Pro-Gln-Cys-Phe-Tyr-Pro-Leu-Met-NH2]
ring closure, conversion (from H-Arg-Pro-Cys-Pro-Gln-Cys-Phe-Tyr-Pro-Leu-Met-NH2, 14-membered ring): 99%

H-Cys-Phe-Gly-Ser-Arg-Ile-Asp-Arg-Ile-Gly-Ala-Gln-Ser-Gly-Met-Gly-Cys-Gly-Arg-Phe-OH
ring closure, conversion (the molecule shown is the open-chain precursor, 53-membered ring, trans-[Pt(en)2Cl2]2+, phosphate buffer pH 6.0, 0.04 mM): 100%

CC(=O)N1CCC[C@H]1C(=O)N[C@H](C(=O)N[C@H]1CSSC[C@@H](C(=O)N[C@@H](CCCNC(=N)N)C(=O)N[C@@H](CCCCN)C(N)=O)NC(=O)[C@H](Cc2ccccc2)NC(=O)[C@@H]2CCCN2C1=O)[C@@H](C)O [Ac-Pro-Thr-Cys-Pro-Phe-Cys-Arg-Lys-NH2]
ring closure, conversion (from Ac-Pro-Thr-Cys-Pro-Phe-Cys-Arg-Lys-NH2, 14-membered ring, trans-[Pt(en)2Cl2]2+): 100%

somatostatin
ring closure, conversion (38-membered ring): 99%

NC(=O)CC[C@@H]1NC(=O)[C@H](Cc2ccccc2)NC(=O)[C@H](Cc2ccc(O)cc2)NC(=O)[C@@H](N)CSSC[C@@H](C(=O)O)NC(=O)[C@H](CC(N)=O)NC1=O [pressinoic acid]
ring closure, conversion (from H-Cys-Tyr-Phe-Gln-Asn-Cys-OH, 20-membered ring, trans-[Pt(en)2Cl2]2+): 100%

N=C(N)NCCC[C@H](NC(=O)[C@@H]1CCCN1C(=O)[C@@H]1CSSC[C@H](N)C(=O)N[C@@H](Cc2ccc(O)cc2)C(=O)N[C@@H](Cc2ccccc2)C(=O)N[C@@H](CCC(N)=O)C(=O)N[C@@H](CC(N)=O)C(=O)N1)C(=O)NCC(N)=O [arginine-vasopressin]
ring closure, conversion (from H-Cys-Tyr-Phe-Gln-Asn-Cys-Pro-Arg-Gly-NH2, 20-membered ring, trans-[Pt(en)2Cl2]2+): 100%

COc1ccc(C[C@@H]2NC(=O)CC(C)(C)SSC[C@@H](C(=O)N3CCC[C@H]3C(=O)N[C@@H](CCCNC(=N)N)C(=O)NCC(N)=O)NC(=O)[C@H](CC(N)=O)NC(=O)[C@H](CCC(N)=O)NC(=O)[C@H](Cc3ccccc3)NC2=O)cc1
ring closure, conversion (from HSC(Me)2CH2CO-Tyr(Me)-Phe-Gln-Asn-Cys-Pro-Arg-Gly-NH2, 20-membered ring, trans-[Pt(en)2Cl2]2+): 97%

CC(=O)N[C@H](C(=O)N[C@H]1CSSC[C@@H](C(=O)N[C@@H](CCCNC(=N)N)C(N)=O)NC(=O)[C@H](Cc2ccccc2)NC(=O)[C@@H]2CCCN2C1=O)[C@@H](C)O [Ac-Thr-Cys-Pro-Phe-Cys-Arg-NH2]
ring closure, conversion (from Ac-Thr-Cys-Pro-Phe-Cys-Arg-NH2, 14-membered ring, trans-[Pt(en)2Cl2]2+): 100%

CC(=O)N[C@H]1CSSC[C@@H](C(N)=O)NC(=O)[C@H](Cc2ccccc2)NC(=O)[C@@H]2CCCN2C1=O [Ac-Cys-Pro-Phe-Cys-NH2]
ring closure, conversion (from Ac-Cys-Pro-Phe-Cys-NH2, 14-membered ring, trans-[Pt(en)2Cl2]2+): 97%

CC(=O)N[C@H]1CSSC[C@@H](C(N)=O)NC(=O)[C@@H]2CCCN2C(=O)CNC1=O [Ac-Cys-Gly-Pro-Cys-NH2]
ring closure, conversion (from Ac-Cys-Gly-Pro-Cys-NH2, 14-membered ring, trans-[Pt(en)2Cl2]2+): 100%

CC[C@H](C)[C@@H]1NC(=O)[C@H](Cc2ccc(O)cc2)NC(=O)[C@@H](N)CSSC[C@@H](C(=O)N2CCC[C@H]2C(=O)N[C@@H](CC(C)C)C(=O)NCC(N)=O)NC(=O)[C@H](CC(N)=O)NC(=O)[C@H](CCC(N)=O)NC1=O [oxytocin]
ring closure, conversion (from H-Cys-Tyr-Ile-Gln-Asn-Cys-Pro-Leu-Gly-NH2, 20-membered ring, trans-[Pt(en)2Cl2]2+): 98%
